In patent US8697739B2, “Bicyclic acetyl-CoA carboxylase inhibitors and uses thereof” (Novartis AG, priority 2010, dated 2014):

Molecular target: T1, human acetyl-CoA carboxylase 2 (ACC2) (Homo sapiens, UniProt O00763)
T1 construct: The cDNA encoding amino acids 144 to 2458 of human acetyl-CoA carboxylase 2; made in house; host or cells: Sf9 insect cells (baculovirus, pFastBac1)
Test: Acetyl-CoA carboxylase enzyme assay (malonyl-CoA formation by LC/MS/MS)
Assay type: biochemical
Details: recombinant human ACC2 (aa 144-2458); read-out: IC50 ACC2
In short: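 Malonyl-CoA formation was read by LC/MS/MS MRM against a [13C3]-malonyl-CoA internal standard, after acetic acid quench. The enzyme was baculovirus/Sf9-expressed human ACC2 residues 144–2458, given 15 minutes room-temperature compound preincubation in HEPES pH 7.5 buffer with MgCl2, citrate and DTT. Substrate solution held 50 μM acetyl-CoA, 120 μM ATP and 2 mM KHCO3.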

T1 sequence (O00763 144-2458): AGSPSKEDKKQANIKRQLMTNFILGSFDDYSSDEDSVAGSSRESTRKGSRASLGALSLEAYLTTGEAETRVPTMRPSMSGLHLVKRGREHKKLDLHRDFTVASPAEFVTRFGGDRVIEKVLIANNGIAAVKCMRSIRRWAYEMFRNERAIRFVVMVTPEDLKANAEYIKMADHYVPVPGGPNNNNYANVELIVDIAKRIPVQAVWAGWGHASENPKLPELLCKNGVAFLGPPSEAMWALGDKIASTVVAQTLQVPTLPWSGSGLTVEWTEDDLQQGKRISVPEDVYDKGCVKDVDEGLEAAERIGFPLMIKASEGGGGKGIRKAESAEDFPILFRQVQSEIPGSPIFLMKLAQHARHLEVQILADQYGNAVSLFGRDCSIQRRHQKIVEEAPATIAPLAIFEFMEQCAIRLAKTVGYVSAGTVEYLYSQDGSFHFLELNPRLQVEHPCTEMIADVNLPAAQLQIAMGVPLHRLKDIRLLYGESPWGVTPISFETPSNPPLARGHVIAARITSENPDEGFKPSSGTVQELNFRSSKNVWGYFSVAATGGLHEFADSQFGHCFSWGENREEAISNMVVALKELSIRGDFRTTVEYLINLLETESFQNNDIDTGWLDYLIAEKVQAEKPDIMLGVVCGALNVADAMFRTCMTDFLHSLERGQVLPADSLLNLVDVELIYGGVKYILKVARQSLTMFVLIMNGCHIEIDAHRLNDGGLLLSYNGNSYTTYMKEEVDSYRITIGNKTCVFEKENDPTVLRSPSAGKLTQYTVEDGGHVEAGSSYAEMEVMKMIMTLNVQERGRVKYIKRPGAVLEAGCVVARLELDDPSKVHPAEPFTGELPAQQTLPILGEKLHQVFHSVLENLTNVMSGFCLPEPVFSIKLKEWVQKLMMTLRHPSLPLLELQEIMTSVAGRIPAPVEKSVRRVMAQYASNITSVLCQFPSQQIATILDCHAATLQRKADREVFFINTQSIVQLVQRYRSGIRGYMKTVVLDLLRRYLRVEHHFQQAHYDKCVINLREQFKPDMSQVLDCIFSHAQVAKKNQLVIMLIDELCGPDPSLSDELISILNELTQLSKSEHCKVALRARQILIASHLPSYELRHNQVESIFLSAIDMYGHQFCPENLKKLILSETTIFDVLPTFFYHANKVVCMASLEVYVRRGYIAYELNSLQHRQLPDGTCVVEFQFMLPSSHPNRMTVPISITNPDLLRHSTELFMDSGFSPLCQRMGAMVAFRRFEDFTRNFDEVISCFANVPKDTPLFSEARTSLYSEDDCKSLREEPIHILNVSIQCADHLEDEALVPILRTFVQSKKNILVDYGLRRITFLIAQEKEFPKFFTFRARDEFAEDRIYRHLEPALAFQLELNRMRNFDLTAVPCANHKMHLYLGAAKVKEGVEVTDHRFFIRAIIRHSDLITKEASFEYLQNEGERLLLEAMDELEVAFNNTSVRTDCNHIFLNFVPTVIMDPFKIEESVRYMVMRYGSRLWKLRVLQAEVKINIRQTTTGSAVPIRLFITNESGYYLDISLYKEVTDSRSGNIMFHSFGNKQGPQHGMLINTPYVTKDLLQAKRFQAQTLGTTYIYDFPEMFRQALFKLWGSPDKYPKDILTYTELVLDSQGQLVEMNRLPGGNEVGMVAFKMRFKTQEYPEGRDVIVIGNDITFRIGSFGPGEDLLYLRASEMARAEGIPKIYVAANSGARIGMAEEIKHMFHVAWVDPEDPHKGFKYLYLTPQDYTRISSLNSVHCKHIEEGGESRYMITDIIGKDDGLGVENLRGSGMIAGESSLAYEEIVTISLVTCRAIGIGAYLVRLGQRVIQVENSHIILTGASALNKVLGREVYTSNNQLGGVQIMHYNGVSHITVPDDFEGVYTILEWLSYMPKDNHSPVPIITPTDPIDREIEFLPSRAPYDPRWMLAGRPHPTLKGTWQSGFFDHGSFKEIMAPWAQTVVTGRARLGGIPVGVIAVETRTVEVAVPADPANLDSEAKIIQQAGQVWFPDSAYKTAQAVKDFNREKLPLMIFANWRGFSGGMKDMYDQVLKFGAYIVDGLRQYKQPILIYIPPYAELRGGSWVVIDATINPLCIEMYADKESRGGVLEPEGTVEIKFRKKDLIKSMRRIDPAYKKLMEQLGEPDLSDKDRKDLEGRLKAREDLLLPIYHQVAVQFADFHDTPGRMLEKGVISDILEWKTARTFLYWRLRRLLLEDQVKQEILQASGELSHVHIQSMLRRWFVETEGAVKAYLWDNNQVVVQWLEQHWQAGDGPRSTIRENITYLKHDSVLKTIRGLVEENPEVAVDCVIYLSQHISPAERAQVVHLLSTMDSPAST

`Cn1c(-c2ccc(CCC(=O)O)cc2)c(C#N)c2ccc(S(=O)(=O)N[C@H]3CC[C@H](C(=O)N4CCC[C@H]4C(C)(C)C)CC3)cc21` [Example 429, 3-(4-(6-(N-((1S,4r)-4-((S)-2-tert-butylpyrrolidine-1-carbonyl)cyclohexyl)sulfamoyl)-3-cyano-1-methyl-1H-indol-2-yl)phenyl)propanoic acid] and `C[C@@H]1COCCN1C(=O)[C@H]1CC[C@H](NS(=O)(=O)c2ccc3c(C#N)c(C4CC4)n(C)c3c2)CC1` [Example 413, 3-cyano-2-cyclopropyl-1-methyl-N-((1R,4r)-4-((R)-3-methylmorpholine-4-carbonyl)cyclohexyl)-1H-indole-6-sulfonamide] are within 1.5-fold of each other in IC50: 0.075 µM for the first, 0.05 µM for the second.

First: CC(C)[C@H]1COCCN1C(=O)[C@H]1CC[C@H](NS(=O)(=O)c2ccc3cc(-c4ccccc4)[nH]c3c2)CC1 [Example 463, N-((1S,4r)-4-((S)-3-isopropylmorpholine-4-carbonyl)cyclohexyl)-2-phenyl-1H-indole-6-sulfonamide]
Second: Cc1ccccc1-c1cc2ccc(S(=O)(=O)N[C@H]3CC[C@H](C(=O)N4CCOC[C@@H]4C)CC3)cc2[nH]1 [Example 482, N-((1S,4r)-4-((S)-3-methylmorpholine-4-carbonyl)cyclohexyl)-2-o-tolyl-1H-indole-6-sulfonamide]
The IC50 of the first is lower: < 0.01 µM for the first, 0.09 µM for the second. The first is the more potent here.

Going from `CC(C)(C)c1nnc([C@H]2CC[C@H](NS(=O)(=O)c3ccc4[nH]c(C5CC5)nc4c3)CC2)o1` [Example 651, N-((1r,4r)-4-(5-tert-butyl-1,3,4-oxadiazol-2-yl)cyclohexyl)-2-cyclopropyl-1H-benzo[d]imidazole-5-sulfonamide] to `CC(C)(C)c1nnc([C@H]2CC[C@H](NS(=O)(=O)c3ccc4[nH]c(-c5ccc(C(=O)O)cc5)nc4c3)CC2)o1` [Example 656, 4-(5-(N-((1r,4r)-4-(5-tert-butyl-1,3,4-oxadiazol-2-yl)cyclohexyl)sulfamoyl)-1H-benzo[d]imidazol-2-yl)benzoic acid], the IC50 falls from 6.35 µM to 0.87 µM (7.3-fold).

First: Cn1c(-c2ccccc2)cc2ccc(S(=O)(=O)N[C@H]3CC[C@H](C(=O)N4CCC(O)C4)CC3)cc21 (some centres unmarked) [Example 433, N-((1r,4r)-4-(3-hydroxypyrrolidine-1-carbonyl)cyclohexyl)-1-methyl-2-phenyl-1H-indole-6-sulfonamide]
Second: Cn1ccc2cc(S(=O)(=O)N[C@H]3CC[C@H](C(=O)N[C@@H](CO)c4ccccc4)CC3)ccc21 [Example 671, (1r,4R)-N-((R)-2-hydroxy-1-phenylethyl)-4-(1-methyl-1H-indole-5-sulfonamido)cyclohexanecarboxamide]
The IC50 of the first is lower: 0.445 µM for the first, > 35 µM for the second. The first is the more potent here.

Compared with `CCC(C)NC(=O)[C@H]1CC[C@H](NS(=O)(=O)c2ccc3[nH]c(-c4cccnc4)cc3c2)CC1` (some centres unmarked) [Example 286, (1r,4r)-N-sec-butyl-4-(2-(pyridin-3-yl)-1H-indole-5-sulfonamido)cyclohexanecarboxamide], `C[C@@H](NC(=O)[C@H]1CC[C@H](NS(=O)(=O)c2ccc3cc(-c4ccccc4Cl)[nH]c3c2)CC1)c1ccc(F)cc1` [Example 291, (1r,4R)-4-(2-(2-chlorophenyl)-1H-indole-6-sulfonamido)-N-((R)-1-(4-fluorophenyl)ethyl)cyclohexanecarboxamide] is 20-fold lower in IC50: 0.342 µM for the first, 0.017 µM for the second. The second is the more potent here.

First: C[C@@H](NC(=O)[C@H]1CC[C@H](NS(=O)(=O)c2ccc3nc(OCC(F)(F)F)ccc3c2)CC1)c1ccc(F)cc1 [Example 50, (1r,4R)-N-((R)-1-(4-fluorophenyl)ethyl)-4-(2-(2,2,2-trifluoroethoxy)quinoline-6-sulfonamido)cyclohexanecarboxamide]
Second: C[C@@H](NC(=O)[C@H]1CC[C@H](NS(=O)(=O)c2ccc3nc(-c4ccncc4)ccc3c2)CC1)c1ccc(F)cc1 [Example 39, (1r,4R)-N-((R)-1-(4-fluorophenyl)ethyl)-4-(2-(pyridin-4-yl)quinoline-6-sulfonamido)cyclohexanecarboxamide]
The IC50 of the first is higher: > 35 µM for the first, 0.025 µM for the second. The second is the more potent here.

Going from `Cc1ccc(-c2nc3ccc(S(=O)(=O)Nc4ccc(C(=O)OC(C)C)cc4)cc3[nH]2)cc1` [Example 504, isopropyl 4-(2-p-tolyl-1H-benzo[d]imidazole-6-sulfonamido)benzoate] to `Cc1cccc(Nc2nc3cc(S(=O)(=O)Nc4ccc(C(=O)OC(C)C)cc4)ccc3[nH]2)c1` [Example 536, isopropyl 4-(2-(m-tolylamino)-1H-benzo[d]imidazole-5-sulfonamido)benzoate], the IC50 falls from 1.74 µM to 0.412 µM (4.2-fold).

Going from `CC(C)OC(=O)c1ccc(NS(=O)(=O)c2ccc3[nH]c(Nc4cccc(F)c4)nc3c2)cc1` [Example 535, isopropyl 4-(2-(3-fluorophenylamino)-1H-benzo[d]imidazole-5-sulfonamido)benzoate] to `C[C@@H](NC(=O)[C@H]1CC[C@H](NS(=O)(=O)c2ccc3[nH]c(Nc4ccccc4)nc3c2)CC1)c1ccccc1` [Example 569, (1r,4R)-4-(2-(phenylamino)-1H-benzo[d]imidazole-5-sulfonamido)-N-((R)-1-phenylethyl)cyclohexanecarboxamide], the IC50 falls from 0.225 µM to < 0.01 µM.

First: CC1CCc2cc(S(=O)(=O)N[C@H]3CC[C@H](C(=O)N[C@H](C)c4ccc(F)cc4)CC3)ccc2N1 (stereo partly drawn) [Example 169, (1r,4R)-N-((R)-1-(4-fluorophenyl)ethyl)-4-(2-methyl-1,2,3,4-tetrahydroquinoline-6-sulfonamido)cyclohexanecarboxamide]
Second: C[C@@H](NC(=O)[C@H]1CC[C@H](NS(=O)(=O)c2ccc3c(c2)NCCC3(C)C)CC1)c1ccc(F)cc1 [Example 196, (1r,4R)-4-(4,4-dimethyl-1,2,3,4-tetrahydroquinoline-7-sulfonamido)-N-((R)-1-(4-fluorophenyl)ethyl)cyclohexanecarboxamide]
The IC50 of the first is 2-fold lower: 0.11 µM for the first, 0.22 µM for the second. The first is the more potent here.

Going from `CC(C)COC(=O)N1CCC(C)(C)c2ccc(S(=O)(=O)N[C@H]3CC[C@H](C(=O)N[C@H](C)c4ccc(F)cc4)CC3)cc21` [Example 212, isobutyl 7-(N-((1R,4r)-4-((R)-1-(4-fluorophenyl)ethylcarbamoyl)cyclohexyl)sulfamoyl)-4,4-dimethyl-3,4-dihydroquinoline-1(2H)-carboxylate] to `C[C@@H](NC(=O)[C@H]1CC[C@H](NS(=O)(=O)c2ccc3c(c2)C(NC(=O)C(F)(F)F)CCN3C(=O)C(F)(F)F)CC1)c1ccc(F)cc1` (stereo partly drawn) [Example 184, (1r,4R)-N-((R)-1-(4-fluorophenyl)ethyl)-4-(4-(2,2,2-trifluoroacetamido)-1-(2,2,2-trifluoroacetyl)-1,2,3,4-tetrahydroquinoline-6-sulfonamido)cyclohexanecarboxamide], the IC50 rises from 0.165 µM to > 35 µM.

Going from `Cn1c(C2CC2)c(C#N)c2ccc(S(=O)(=O)N[C@H]3CC[C@H](C(=O)N4CCOCC4)CC3)cc21` [Example 23, 3-cyano-2-cyclopropyl-1-methyl-N-((1r,4r)-4-(morpholine-4-carbonyl)cyclohexyl)-1H-indole-6-sulfonamide] to `C[C@@H](NC(=O)[C@H]1CC[C@H](NS(=O)(=O)c2ccc3nc(OC4COC4)ccc3c2)CC1)c1ccccn1` [Example 83, (1r,4R)-4-(2-(oxetan-3-yloxy)quinoline-6-sulfonamido)-N-((R)-1-(pyridin-2-yl)ethyl)cyclohexanecarboxamide], the IC50 rises from 0.15 µM to 0.855 µM (5.7-fold).

`C[C@@H](NC(=O)[C@H]1CC[C@H](NS(=O)(=O)c2cnc3ccccc3c2)CC1)c1ccccc1F` [Example 58, (1r,4R)-N-((R)-1-(2-fluorophenyl)ethyl)-4-(quinoline-3-sulfonamido)cyclohexanecarboxamide] gave an IC50 of 0.185 µM.
